Measurements taken from patent US20250230165A1, “HETEROCYCLIC COMPOUNDS FOR USE IN THE TREATMENT OF CANCER” (ARTIOS PHARMA LIMITED, priority 2021, published 2025).

Biological target: T1, Human Polθ polymerase domain (aa1820-2590) (Homo sapiens, UniProt O75417)
T1 construct: Human Polθ polymerase domain (aa1820-2590) was expressed in E. coli; made in house; host or cells: E. coli
T1 sequence (O75417 1820-2590): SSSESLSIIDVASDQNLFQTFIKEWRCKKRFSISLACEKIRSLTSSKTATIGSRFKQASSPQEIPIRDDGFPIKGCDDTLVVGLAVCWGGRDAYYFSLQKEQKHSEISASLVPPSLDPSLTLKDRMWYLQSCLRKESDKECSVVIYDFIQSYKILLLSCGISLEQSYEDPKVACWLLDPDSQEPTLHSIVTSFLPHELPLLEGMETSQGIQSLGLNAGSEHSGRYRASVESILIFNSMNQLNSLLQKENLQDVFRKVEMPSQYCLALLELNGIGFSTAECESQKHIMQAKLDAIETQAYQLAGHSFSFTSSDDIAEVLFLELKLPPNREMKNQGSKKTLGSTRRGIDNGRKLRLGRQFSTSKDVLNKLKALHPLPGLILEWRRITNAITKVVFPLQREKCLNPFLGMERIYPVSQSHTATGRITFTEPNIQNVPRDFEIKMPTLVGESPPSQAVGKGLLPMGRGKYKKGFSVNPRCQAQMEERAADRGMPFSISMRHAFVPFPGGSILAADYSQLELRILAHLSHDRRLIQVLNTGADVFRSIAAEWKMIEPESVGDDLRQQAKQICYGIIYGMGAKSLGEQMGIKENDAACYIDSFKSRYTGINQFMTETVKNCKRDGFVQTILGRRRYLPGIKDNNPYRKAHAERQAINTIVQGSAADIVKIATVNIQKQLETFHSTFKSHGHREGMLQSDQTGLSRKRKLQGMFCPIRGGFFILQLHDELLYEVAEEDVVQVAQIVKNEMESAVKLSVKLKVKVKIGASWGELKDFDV
Assay: Polθ Polymerase Domain Kinact/KI Assay (PicoGreen)
Assay type: biochemical
Conditions: 0.8 nM Polθ, 100 nM DNA substrate, kobs vs [I] fit for 2-step covalent inhibitor
Procedure, shortened: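 Covalent Kinact/KI by PicoGreen DNA synthesis readout: E. coli-expressed Polθ polymerase domain (0.8 nM), 100 nM annealed DNA substrate, […], Tris pH 7.5 buffer with DTT, 1% DMSO; EDTA-stopped over 0–60 min time course. kobs from progress curves, then kobs vs [I] fit to two-step covalent model.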

## C=CC(=O)N1CC2(CN(CCN3C[C@H]4CC(=O)N(c5cc(C(F)(F)F)cc(C)n5)[C@@H]4C(=O)N(C)c4cccc(F)c43)C[C@@H](C)N2)C1 [Example 31, (3aR,11aS)-5-(2-((R)-2-acryloyl-6-methyl-2,5,8-triazaspiro[3.5]nonan-8-yl)ethyl)-6-fluoro-10-methyl-1-(6-methyl-4-(trifluoromethyl)pyridin-2-yl)-1,3a,4,5,10, 11a-hexahydro-2H-benzo [b]pyrrolo[2,3-f][1,4] diazocine-2,11(3H)-dione]
  Kinact/Kl: 1.13e+06 M⁻¹ s⁻¹

## C=CC(=O)N1CC(N(C)CC(O)CN2C[C@H]3CC(=O)N(c4cc(C(F)(F)F)cc(C)n4)[C@@H]3C(=O)N(C)c3cccc(Cl)c32)C1 (single isomer, unassigned) [Example 69]
  Kinact/Kl: 1.09e+06 M⁻¹ s⁻¹

## C=C(CN(C)C)C(=O)N[C@H]1CCc2nc(CN3C[C@H]4CC(=O)N(c5cc(C(F)(F)F)cc(C)n5)[C@@H]4C(=O)N(C)c4cccc(C)c43)cn2C1 (racemic) [Example 329b, N-((S/R)-2-(((3aR, 11aS)-6,10-dimethyl-1-(6-methyl-4-(tri-fluoromethyl)pyridin-2-yl)-2,11-dioxo-1,2,3,3a,4,10,11,11a-octahydro-5H-benzo [b]pyrrolo[2,3-f][1,4]diazocin-5-yl)meth-yl)-5,6,7,8-tetrahydro-imidazo[1,2-a]pyr-idin-6-yl)-2-((dimeth-ylamino)methyl)-acrylamide]
  Kinact/Kl: 5.73e+06 M⁻¹ s⁻¹

## C=CC(=O)N1Cc2ncc(CN3C[C@H]4CC(=O)N(c5cc(C(F)(F)F)cc(C)n5)[C@@H]4C(=O)N(C)c4cccc(C)c43)cc2[C@@H]1CC#N (racemic) [Example 320b, 2-((S/R)-6-acryloyl-3-(((3aR,11aS)-6,10-dimethyl-1-(6-meth-yl-4-(trifluorometh-yl)pyridin-2-yl)-2,11-dioxo-1,2,3,3a, 4, 10,11,11a-octa-hydro-5H-benzo[b]pyrrolo[2,3-f][1,4]diazocin-5-yl)meth-yl)-6,7-dihydro-5H-pyrrolo[3,4-b]pyr-idin-5-yl)acetonitrile]
  Kinact/Kl: 2.48e+06 M⁻¹ s⁻¹

## C=CC(=O)N1CC(N2CCC(F)(CN3C[C@H]4CC(=O)N(c5cc(C(F)(F)F)cc(C)n5)[C@@H]4C(=O)N(C)c4cccc(Cl)c43)CC2)C1 [Example 217, (3aR,11aS)-5-((1-(1-acryloylazetidin-3-yl)-4-fluoropiperidin-4-yl)methyl)-6-chloro-10-methyl-1-(6-methyl-4-(trifluoromethyl)pyridin-2-yl)-1,3a,4,5,10,11a-hexahydro-2H-benzo[b] pyrrolo[2,3-f] [1,4]diazocine-2,11(3H)-dione]
  Kinact/Kl: 1.59e+06 M⁻¹ s⁻¹

## Cc1cc(C(F)(F)F)cc(N2C(=O)C[C@@H]3CN(Cc4ccc(NC(=O)C5=CCCN(C)C5)cc4)c4c(C)cccc4N(C)C(=O)[C@H]32)n1 [Example 211, N-(4-(((3aR, 11aS)-6,10-dimethyl-1-(6-methyl-4-(trifluoromethyl)pyridin-2-yl)-2,11-dioxo-1,2,3,3a,4,10,11,11a-octahydro-5H-benzo[b]pyrrolo [2,3-f][1,4]diazocin-5-yl)methyl)phenyl)-1-methyl-1,2,5,6-tetrahydropyridine-3-carboxamide]
  Kinact/Kl: 1.57e+06 M⁻¹ s⁻¹

## C=CC(=O)N1CC2(CN(CCN3C[C@H]4CC(=O)N(c5cc(C(F)(F)F)cc(C)n5)[C@@H]4C(=O)N(C)c4cccc(C)c43)CC2C#N)C1 (single isomer, unassigned) [Example 118a]
  Kinact/Kl: 3e+06 M⁻¹ s⁻¹

## Cc1cc(C(F)(F)F)cc(N2C(=O)C[C@@H]3CN(Cc4ccc5c(c4)CN(C(=O)/C=C/CN(C)C)C5)c4c(F)cccc4N(C)C(=O)[C@H]32)n1 [Example 148, (3aR,11aS)-5-((2-((E)-4-(dimethylamino)but-2-enoyl)isoindolin-5-yl)methyl)-6-fluoro-10-methyl-1-(6-methyl-4-(trifluoromethyl)pyridin-2-yl)-1,3a,4,5,10,11a-hexahydro-2H-benzo[b]pyrrolo[2,3-f][1,4]diazocine-2,11(3H)-dione]
  Kinact/Kl: 1.65e+06 M⁻¹ s⁻¹

## C=CC(=O)N1CC(N2CCN(CCN3C[C@H]4CC(=O)N(c5cc(C(F)(F)F)cc(C)n5)[C@@H]4C(=O)N(C)c4cc(F)ccc43)CC2)C1 [Example 15, (3aR,11aS)-5-(2-(4-(1-acryloylazetidin-3-yl)piperazin-1-yl)ethyl)-8-fluoro-10-methyl-1-(6-methyl-4-(trifluoromethyl)pyridin-2-yl)-1,3a,4,5,10,11a-hexahydro-2H-benzo[b]pyrrolo[2,3-f][1,4]diazocine-2,11(3H)-dione]
  Kinact/Kl: 73000 M⁻¹ s⁻¹

## C=CC(=O)N1CC(N2CCN(CCN3C[C@H]4CC(=O)N(c5cc(C(F)(F)F)cc(C)n5)[C@@H]4C(=O)N(C)c4cccc(Cl)c43)CC2)C1 [Example 12, (3aR,11aS)-5-(2-(4-(1-acryloylazetidin-3-yl)piperazin-1-yl)ethyl)-6-chloro-10-methyl-1-(6-methyl-4-(trifluoromethyl)pyridin-2-yl)-1,3a,4,5,10,11a-hexahydro-2H-benzo[b]pyrrolo[2,3-f][1,4]diazocine-2,11(3H)-dione]
  Kinact/Kl: 1.71e+06 M⁻¹ s⁻¹

## C=CC(=O)N1CC2(CN(CCN3C[C@H]4CC(=O)N(c5cc(C(F)(F)F)cc(C)n5)[C@@H]4C(=O)N(C)c4cccc(C)c43)CCN2)C1 [Example 114, (3aR,11aS)-5-(2-(2-acryloyl-2,5,8-triazaspiro[3.5]nonan-8-yl)ethyl)-6,10-dimethyl-1-(6-methyl-4-(trifluoromethyl)pyridin-2-yl)-1,3a,4,5,10,11a-hexahydro-2H-benzo[b]pyrrolo[2,3-f][1,4]diazocine-2,11(3H)-dione]
  Kinact/Kl: 580000 M⁻¹ s⁻¹

## C=CC(=O)N1CCC[C@@H]1c1nc(CN2C[C@H]3CC(=O)N(c4cc(C(F)(F)F)cc(C)n4)[C@@H]3C(=O)N(C)c3cccc(C)c32)no1 [Example 270, (3aR,11aS)-5-((5-((R)-1-acryloylpyrrolidin-2-yl)-1,2,4-oxadiazol-3-yl)methyl)-6,10-dimethyl-1-(6-methyl-4-(trifluoromethyl)pyridin-2-yl)-1,3a,4,5,10,11a-hexahydro-2H-benzo[b]pyrrolo[2,3-f][1,4]diazocine-2,11(3H)-dione]
  Kinact/Kl: 110000 M⁻¹ s⁻¹

## C=C(CN(C)C)C(=O)N1CC(OCCCN2C[C@H]3CC(=O)N(c4cc(C(F)(F)F)cc(C)n4)[C@@H]3C(=O)N(C)c3cccc(Cl)c32)C1 [Example 156, (3aR,11aS)-6-chloro-5-(3-((1-(2-((dimethylamino)methyl)acryloyl)azetidin-3-yl)oxy)propyl)-10-methyl-1-(6-methyl-4-(trifluoromethyl)pyridin-2-yl)-1,3a,4,5,10,11a-hexahydro-2H-benzo[b]pyrrolo[2,3- ][1,4]diazocine-2,11(3H)-dione]
  Kinact/Kl: 3.95e+06 M⁻¹ s⁻¹

## C=CC(=O)N1CCN2CCN(C(=O)CN3C[C@H]4CC(=O)N(c5cc(C(F)(F)F)cc(C)n5)[C@@H]4C(=O)N(C)c4cccc(F)c43)CC2C1 (mixture of isomers) [Example 76a, (3aR,11aS)-5-(2-((R/S)-8-acryloyloctahydro-2H-pyrazino[1,2-a]pyrazin-2-yl)-2-oxoethyl)-6-fluoro-10-methyl-1-(6-methyl-4-(trifluoromethyl)pyridin-2-yl)-1,3a,4,5,10,11a-hexahydro-2H-benzo[b]pyrrolo[2,3-f][1,4]diazocine-2,11(3H)-dione]
  Kinact/Kl: 220000 M⁻¹ s⁻¹

## C=CC(=O)N1CCOc2cc(CN3C[C@H]4CC(=O)N(c5cc(C(F)(F)F)cc(C)n5)[C@@H]4C(=O)N(C)c4cccc(Cl)c43)ccc21 [Example 281, (3aR,11aS)-5-((4-acryloyl-3,4-dihydro-2H-benzo[b][1,4]oxazin-7-yl)methyl)-6-chloro-10-methyl-1-(6-methyl-4-(trifluoromethyl)pyridin-2-yl)-1,3a,4,5,10,11a-hexahydro-2H-benzo[b]pyrrolo[2,3-f][1,4]diazocine-2,11(3H)-dione]
  Kinact/Kl: 1.05e+06 M⁻¹ s⁻¹

## Cc1cc(C(F)(F)F)cc(N2C(=O)C[C@@H]3CN(Cc4ccc([C@@H]5CCCN5C(=O)/C=C/CN(C)C)cc4)c4c(F)cccc4N(C)C(=O)[C@H]32)n1 (racemic) [Example 170b, (3aR,11aS)-5-(4-((S/R)-1-((E)-4-(dimethylamino)-but-2-enoyl)pyr-rolidin-2-yl)benz-yl)-6-fluoro-10-methyl-1-(6-methyl-4-(tri-fluoromethyl)-pyridin-2-yl)-1,3a,4,5,10,11a-hexahydro-2H-benzo[b]pyrrolo [2,3-f][1,4]diazo-cine-2,11(3H)-dione]
  Kinact/Kl: 410000 M⁻¹ s⁻¹
